Results as given in publication PMC7597410, “Targeting breast cancer metabolism with a novel inhibitor of mitochondrial ATP synthesis” (Oncotarget, 2020).

Target: T1, mitochondrial ATP synthase subunit alpha (α-F1-ATP synthase, ATP5A) (Homo sapiens, UniProt P25705)
T1 construct: gene ATP5F1A; purified recombinant human α-F1-ATP synthase (CusaBio)
Experiment: DSF Tm increase with purified recombinant α subunit ([…]~[…] CADD522, no Kd); the EC50 is from CETSA in MDA-MB-231 lysate; immunocaptured ATP synthase also inhibited at […]~[…]
Format: binding

T1 sequence (P25705 44-553): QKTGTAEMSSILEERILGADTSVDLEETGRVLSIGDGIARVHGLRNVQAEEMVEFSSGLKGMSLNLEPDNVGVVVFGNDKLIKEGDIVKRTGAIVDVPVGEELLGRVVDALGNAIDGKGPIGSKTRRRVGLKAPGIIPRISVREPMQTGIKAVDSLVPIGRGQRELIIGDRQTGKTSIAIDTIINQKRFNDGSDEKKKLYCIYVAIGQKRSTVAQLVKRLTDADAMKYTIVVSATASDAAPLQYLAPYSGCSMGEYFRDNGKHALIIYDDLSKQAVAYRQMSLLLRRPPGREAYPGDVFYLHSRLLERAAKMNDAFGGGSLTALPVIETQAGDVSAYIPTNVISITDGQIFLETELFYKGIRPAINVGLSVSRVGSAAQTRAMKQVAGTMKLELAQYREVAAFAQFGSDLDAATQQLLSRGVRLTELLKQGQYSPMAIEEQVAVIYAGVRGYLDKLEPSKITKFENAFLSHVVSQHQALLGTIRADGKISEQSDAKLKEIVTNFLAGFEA

- EC50: < 140 nM
SMILES: O=C(O)C1C2C=CC(C2)C1C(=O)Nc1ccc(Cl)c(Cl)c1 (stereo not shown) [CADD522]
